Laboratory results: patent US20040225128A1 (priority 2001, published 2004)
Where a name gives a salt, the structure may show the parent alone. Read-outs that look alike come from different tables or passages of the source.

Key:
Hygroscopicity = format: physicochemical
[1] = as described in European Patent 0223403B; cited from earlier work
[2] = as described in European Patent 0223403B; cited from earlier work; remark: listed apart in the source

Row | Structure (SMILES) | Hygroscopicity (in words) (Hygroscopicity) | Stability (in words) [1] | Hygroscopicity (in words) [2]
1 | Fc1ccc([C@@H]2CCNC[C@H]2COc2ccc3c(c2)OCO3)cc1 [Example 3, paroxetine isethionate] | practically no adverse hygroscopicity characteristics | – | –
2 | Fc1ccc([C@@H]2CCNC[C@H]2COc2ccc3c(c2)OCO3)cc1 [Example 9, paroxetine hydrochloride hemi hydrate] | – | stable | non-hygroscopic
